Test results: paper PMC11945486, “TAS1R2/TAS1R3 Single-Nucleotide Polymorphisms Affect Sweet Taste Receptor Activation by Sweeteners: The SWEET Project” (Nutrients, 2025)
No end group written: not given here.

T1: human TAS1R2-R317P/TAS1R3-WT (Homo sapiens, UniProt Q7RTX0+Q8TE23, R317P)
T1 construct: expressed in transfected cells; host or cells: HEK293T-Gα16gust44
T1 sequence (Q8TE23 20-839 R317P): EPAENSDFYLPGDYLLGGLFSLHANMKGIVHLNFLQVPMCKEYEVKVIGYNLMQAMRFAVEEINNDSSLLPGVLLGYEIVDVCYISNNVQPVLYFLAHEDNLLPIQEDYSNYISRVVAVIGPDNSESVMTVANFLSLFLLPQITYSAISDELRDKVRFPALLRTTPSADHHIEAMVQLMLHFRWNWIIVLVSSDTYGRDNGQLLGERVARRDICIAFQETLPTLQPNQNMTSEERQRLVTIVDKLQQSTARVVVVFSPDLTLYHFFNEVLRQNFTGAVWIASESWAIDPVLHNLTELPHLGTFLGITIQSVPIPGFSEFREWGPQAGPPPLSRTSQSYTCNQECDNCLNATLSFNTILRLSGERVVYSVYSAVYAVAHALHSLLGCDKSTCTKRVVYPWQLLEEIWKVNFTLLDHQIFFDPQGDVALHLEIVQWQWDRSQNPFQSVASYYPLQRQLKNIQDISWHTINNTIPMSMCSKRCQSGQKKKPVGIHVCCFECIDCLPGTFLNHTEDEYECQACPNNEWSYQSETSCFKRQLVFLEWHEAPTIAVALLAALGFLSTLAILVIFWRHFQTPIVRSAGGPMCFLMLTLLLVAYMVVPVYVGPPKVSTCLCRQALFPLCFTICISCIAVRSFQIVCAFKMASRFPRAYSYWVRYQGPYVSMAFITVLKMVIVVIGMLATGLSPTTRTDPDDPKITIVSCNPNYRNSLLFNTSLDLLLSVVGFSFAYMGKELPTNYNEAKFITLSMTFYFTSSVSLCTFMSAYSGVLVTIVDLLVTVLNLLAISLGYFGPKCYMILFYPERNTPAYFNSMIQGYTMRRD
T1 sequence (Q7RTX0 21-852): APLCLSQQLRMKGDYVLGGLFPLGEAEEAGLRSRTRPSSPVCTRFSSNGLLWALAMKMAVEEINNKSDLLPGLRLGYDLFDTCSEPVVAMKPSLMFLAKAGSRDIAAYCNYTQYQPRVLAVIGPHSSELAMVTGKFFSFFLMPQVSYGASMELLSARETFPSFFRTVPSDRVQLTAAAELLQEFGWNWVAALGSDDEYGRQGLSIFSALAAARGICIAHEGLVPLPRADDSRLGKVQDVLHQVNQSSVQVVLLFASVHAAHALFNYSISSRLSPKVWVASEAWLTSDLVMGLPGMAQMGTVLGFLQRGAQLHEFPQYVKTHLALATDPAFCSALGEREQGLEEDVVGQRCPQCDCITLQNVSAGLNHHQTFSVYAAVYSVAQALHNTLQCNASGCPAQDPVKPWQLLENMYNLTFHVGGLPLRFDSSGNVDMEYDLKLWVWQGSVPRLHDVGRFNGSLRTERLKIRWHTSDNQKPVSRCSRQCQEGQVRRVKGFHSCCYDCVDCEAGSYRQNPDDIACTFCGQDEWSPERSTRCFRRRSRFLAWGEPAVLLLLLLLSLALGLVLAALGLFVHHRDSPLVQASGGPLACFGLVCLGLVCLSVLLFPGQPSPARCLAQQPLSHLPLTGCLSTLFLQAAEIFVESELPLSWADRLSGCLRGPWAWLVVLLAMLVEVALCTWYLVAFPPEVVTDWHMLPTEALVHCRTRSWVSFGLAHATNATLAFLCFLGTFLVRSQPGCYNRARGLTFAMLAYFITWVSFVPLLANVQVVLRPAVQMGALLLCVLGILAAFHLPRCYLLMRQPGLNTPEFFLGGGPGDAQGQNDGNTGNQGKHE

B1: thaumatin (protein)
chain: ATFEIVNRCSYTVWAAASKGDAALDAGGRQLNSGESWTINVEPGTKGGKIWARTDCYFDDSGSGICKTGDCGGLLRCKRFGRPPTTLAEFSLNQYGKDYIDISNIKGFNVPMDFSPTTRGCRGVRCAADIVGQCPAKLKAPGGGCNDACTVFQTSEYCCTTGKCGPTEYSRFFKRLCPDAFSYVLDKPTTVTCPGSSNYRVTFCPTA
modifications: Eight disulfides
notes: sweet-tasting plant protein, E957

Target: T1, human TAS1R2-R317P/TAS1R3-WT
Assay: Calcium mobilisation assay, TAS1R2 variant R317P with TAS1R3-WT
Assay type: cell-based
Settings: for Max ΔF/F0: maximal signal amplitude
Description: The coding sequences for TAS1R2 and TAS1R3 were commercially synthesised, and the human codon was optimised for expression in human cells. The coding sequences of human TAS1R2 and TAS1R3 were subcloned and inserted into the mammalian expression vectors pcDNA6/myc-HisA and pcDNA4/myc-HisA (Invitrogen; Thermo Fisher Scientific; Illkirch, France) between the EcoRI and NotI restriction sites, generating the plasmids pcDNA6-TAS1R2 and pcDNA4-TAS1R3, respectively. To increase protein expression in mammalian cells, an upstream start codon was used, which was a sequence called MAX, corresponding to the QBI SP163 element also described in pcDNA4-HisMax (Invitrogen; Thermo Fisher Scientific; Illkirch, France). To measure the expression level of the receptor by immunohistochemistry, we used the FLAG sequence ([…]) in the C-terminal position, which encodes the FLAG tag epitope. SNP variants of TAS1R2 and TAS1R3 were constructed based on […], respectively, using site-directed mutagenesis (Genewiz; Leipzig, Germany).
The HEK293T cells were kindly provided by Jay P. Slack (Givaudan Flavors Corporation; Cincinnati, OH, USA). HEK293T cells stably transfected with Gα16gust44 [43, 67] were seeded in poly-D-lysine-coated clear-bottom black 96-well plates (0.35 × 10^5 cells/well) in high-glucose DMEM supplemented with 2 mM GlutaMAX, 10% dialysed foetal bovine serum with penicillin/streptomycin and G418 (400 μg/mL) at 37 °C and 6.3% CO2 in a humidified atmosphere as previously reported. […] As a negative control, HEK293T cells were mock-transfected with the empty expression vector. After a further 24 h of incubation, the HEK293T cells were washed with C1 buffer (130 mM NaCl, 5 mM KCl, 10 mM HEPES pH 7.4 and 2 mM CaCl2). The 96-well plates containing the cells were then stimulated with sweet-tasting compounds. […] Different concentration ranges were tested depending on the sweet compound injected. The Ca^2+ changes were expressed as fractional changes in fluorescent light intensity: ΔF/F = (F − F0)/F0, where F was the fluorescent light intensity at each point, and F0 was the value of emitted fluorescent light prior to stimulus application. To calculate dose–response relationships, the changes in fluorescence upon stimulus application were averaged, mock-subtracted and baseline-corrected. The dose–response data obtained were adjusted using a 4-parameter logistic equation. The half-maximal effective concentrations (EC50 values) and maximal signal amplitudes were calculated using SigmaPlot software (version 15.0) (Systat Software; San Jose, CA, USA).
For in vitro calcium mobilisation assay performed on hTAS1R2-SNPs, hTAS1R3-SNPs and mTAS1R3-I60T, 6 to 7 concentrations were tested for each sweet compound, plus buffer alone. All concentration–receptor combinations were measured in duplicate, and each experiment was repeated at least 4 times (8 wells/concentration). Results were expressed for each concentration as ΔF/F mean ± SEM and represented as dose–response curves.

Molecule | EC50 | R1 = Variant EC50/WT EC50 | Max ΔF/F0
CC1=CC(=O)NS(=O)(=O)O1 [Acesulfame K, acesulfame K] | 685 ± 41 µM | 1.0 | 0.42 ± 0.01
O=S(=O)(O)NC1CCCCC1 [Cyclamate, cyclamate] | 2860 ± 62 µM |  | 
C[C@H](CC[C@@H](O[C@@H]1O[C@H](CO[C@@H]2O[C@H](CO)[C@@H](O)[C@H](O)[C@H]2O)[C@@H](O)[C@H](O)[C@H]1O[C@@H]1O[C@H](CO)[C@@H](O)[C@H](O)[C@H]1O)C(C)(C)O)[C@H]1CC[C@@]2(C)[C@@H]3CC=C4[C@@H](CC[C@H](O[C@@H]5O[C@H](CO[C@@H]6O[C@H](CO)[C@@H](O)[C@H](O)[C@H]6O)[C@@H](O)[C@H](O)[C@H]5O)C4(C)C)[C@]3(C)[C@H](O)C[C@]12C [Mogroside V, mogroside V] | 27.9 ± 2.5 µM | 1.6 | 1.51 ± 0.05
COc1ccc(CCC(=O)c2c(O)cc(O[C@@H]3O[C@H](CO)[C@@H](O)[C@H](O)[C@H]3O[C@@H]3O[C@@H](C)[C@H](O)[C@@H](O)[C@H]3O)cc2O)cc1O [NHDC, neohesperidin dihydrochalcone] | 171 ± 26.2 µM | 2.2 | 0.58 ± 0.04
COC(=O)[C@H](Cc1ccccc1)NC(=O)[C@H](CC(=O)O)NCCC(C)(C)C [Neotame] | 0.86 ± 0.16 µM | 1.0 | 0.63 ± 0.04
C=C(C)[C@@H]1CC=C(/C=N/O)CC1 [Perillartine, perillartine] | 35.2 ± 2.2 µM | 2.0 | 1.16 ± 0.03
C=C1C[C@@]23CC[C@H]4[C@@](C)(CCC[C@@]4(C)C(=O)O[C@@H]4O[C@H](CO)[C@@H](O)[C@H](O[C@@H]5O[C@H](CO)[C@@H](O)[C@H](O)[C@H]5O)[C@H]4O[C@@H]4O[C@H](CO)[C@@H](O)[C@H](O)[C@H]4O)[C@@H]2CC[C@]1(O[C@@H]1O[C@H](CO)[C@@H](O)[C@H](O[C@@H]2O[C@H](CO)[C@@H](O)[C@H](O)[C@H]2O)[C@H]1O[C@@H]1O[C@H](CO)[C@@H](O)[C@H](O)[C@H]1O)C3 [Rebaudioside M, rebaudioside M] | 26.9 ± 0.5 µM | 1.6 | 1.19 ± 0.01
OC[C@H]1O[C@H](O[C@]2(CCl)O[C@H](CCl)[C@@H](O)[C@@H]2O)[C@H](O)[C@@H](O)[C@H]1Cl [Sucralose] | 98 ± 19 µM | 1.1 | 0.76 ± 0.06
brazzein (QDKCKKVYENYPVSKCQLANQCNYDCKLDKHARSGECFYDEKRNLQCICDYCEY; ends and bridges not checked; cysteine pairing not given here; UniProt P56552 1-54, looked up) [sweet-tasting protein obtained by recombinant production using the yeast Pichia pastoris] |  | 2.5 | 0.91 ± 0.02
thaumatin |  | 2.5 | 0.42 ± 0.01
B1 | 18.9 ± 0.7 µM |  | 
